# Experimental data from the supplement of paper PMC10307832.
# Compound: C1CC(C2=C(C1)C3=C(N2)C=CC(=C3)Cl)C(=O)N [Selisistat] + O=C(c1cc(Cc2n[nH]c(=O)c3ccccc23)ccc1F)N1CCN(C(=O)C2CC2)CC1 [Olaparib] (partner 8 µM)
# Test: relative viability (nuclei count vs DMSO), 5 days (fraction); higher = more cells survive
# Details: first compound 0.4 µM
# In short: (§1)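 For relative viability, nuclei counts in treated wells were divided by those in vehicle wells. Lung cancer cell lines had been pin-tool dosed in 1536-well plates the day after seeding and cultured for 5 days, then fixed and stained in one step (final 0.05% Triton X-100, 1% formaldehyde, 1 ug/ml Hoechst) and imaged at 4×. Doses were one drug alone or a fixed anchor-drug dose plus five library-drug doses (not always all listed) in √10 steps, and values are duplicate-plate medians.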
row,Cell Line,relative viability
1,HOP-62,0.394
2,HCC-44,0.992
3,LU99A,0.24
4,BEN,1.08
5,HARA,0.695
6,HCC-78,0.893
7,NCI-H322M,0.857
8,LCLC-97TM1,0.488
9,A-427,0.853
10,NCI-H441,0.49
11,NCI-H1734,0.667
12,NCI-H460,0.452
13,NCI-H2347,0.719
14,NCI-H1395,0.474
15,201T,0.85

# Same assay, conditions: first compound 1.265 µM
row,Cell Line,relative viability
1,HOP-62,0.422
2,HCC-44,1.01
3,LU99A,0.248
4,BEN,1.03
5,HARA,0.651
6,HCC-78,0.795
7,NCI-H322M,0.83
8,LCLC-97TM1,0.304
9,A-427,0.779
10,NCI-H441,0.51
11,NCI-H1734,0.553
12,NCI-H460,0.404
13,NCI-H2347,0.622
14,NCI-H1395,0.47
15,201T,0.841

# Same assay, conditions: first compound 4 µM
row,Cell Line,relative viability
1,HOP-62,0.419
2,HCC-44,1.01
3,LU99A,0.307
4,BEN,1.06
5,HCC-78,0.82
6,NCI-H441,0.582
7,NCI-H1734,0.731
8,201T,0.827

# Same assay, conditions: first compound 12.65 µM
row,Cell Line,relative viability
1,HOP-62,0.432
2,HCC-44,1.02
3,LU99A,0.255
4,BEN,1.06
5,HARA,0.785
6,HCC-78,0.833
7,NCI-H322M,0.845
8,LCLC-97TM1,0.285
9,A-427,0.829
10,NCI-H441,0.504
11,NCI-H1734,0.583
12,NCI-H460,0.319
13,NCI-H2347,0.605
14,NCI-H1395,0.451
15,201T,0.823

# Same assay, conditions: first compound 40 µM
row,Cell Line,relative viability
1,HOP-62,0.73
2,HCC-44,1.18
3,LU99A,0.251
4,BEN,1.04
5,HARA,0.85
6,HCC-78,0.88
7,NCI-H322M,0.868
8,LCLC-97TM1,0.366
9,A-427,0.692
10,NCI-H441,0.534
11,NCI-H1734,0.658
12,NCI-H460,0.403
13,NCI-H2347,0.621
14,NCI-H1395,0.465
15,201T,0.843

# Compound: c1ccc2c(CCNc3ccc(Nc4ccncc4)cc3)c[nH]c2c1 [Serdemetan] + CS(=O)(=O)N1CCN(Cc2cc3nc(-c4cccc5[nH]ncc45)nc(N4CCOCC4)c3s2)CC1 [Pictilisib] (partner 1 µM)
# Test: as above
# Details: first compound 0.04 µM
# In short: as §1
row,Cell Line,relative viability
1,HOP-62,0.821
2,HCC-44,0.513
3,LU99A,0.336
4,BEN,0.57
5,HARA,0.385
6,HCC-78,0.207
7,NCI-H322M,0.519
8,LCLC-97TM1,0.214
9,A-427,0.787
10,NCI-H441,0.486
11,NCI-H1734,0.466
12,NCI-H460,0.339
13,NCI-H2347,0.718
14,NCI-H1395,0.574
15,201T,0.707

# Same assay, conditions: first compound 0.1265 µM
row,Cell Line,relative viability
1,HOP-62,0.798
2,HCC-44,0.668
3,LU99A,0.33
4,BEN,0.529
5,HARA,0.411
6,HCC-78,0.201
7,NCI-H322M,0.505
8,LCLC-97TM1,0.22
9,A-427,0.704
10,NCI-H441,0.481
11,NCI-H460,0.366
12,NCI-H2347,0.517
13,NCI-H1395,0.619
14,201T,0.712

# Same assay, conditions: first compound 0.4 µM
row,Cell Line,relative viability
1,HOP-62,0.782
2,HCC-44,0.501
3,LU99A,0.338
4,BEN,0.565
5,HARA,0.408
6,HCC-78,0.155
7,NCI-H322M,0.468
8,LCLC-97TM1,0.183
9,A-427,0.607
10,NCI-H441,0.418
11,NCI-H1734,0.354
12,NCI-H460,0.27
13,NCI-H2347,0.71
14,NCI-H1395,0.676
15,201T,0.67

# Same assay, conditions: first compound 1.265 µM
row,Cell Line,relative viability
1,HOP-62,0.604
2,HCC-44,0.481
3,LU99A,0.2
4,BEN,0.535
5,HCC-78,0.192
6,NCI-H322M,0.552
7,LCLC-97TM1,0.143
8,A-427,0.49
9,NCI-H441,0.277
10,NCI-H1734,0.163
11,NCI-H460,0.287
12,NCI-H2347,0.69
13,NCI-H1395,0.485
14,201T,0.655

# Same assay, conditions: first compound 4 µM
row,Cell Line,relative viability
1,HOP-62,0.657
2,HCC-44,0.689
3,LU99A,0.218
4,BEN,0.496
5,HARA,0.347
6,HCC-78,0.245
7,NCI-H322M,0.516
8,LCLC-97TM1,0.124
9,A-427,0.599
10,NCI-H441,0.384
11,NCI-H1734,0.242
12,NCI-H460,0.253
13,NCI-H2347,0.464
14,NCI-H1395,0.475
15,201T,0.664

# Compound: c1ccc2c(CCNc3ccc(Nc4ccncc4)cc3)c[nH]c2c1 [Serdemetan] + NC(=O)Nc1cc(-c2cccc(F)c2)sc1C(=O)N[C@H]1CCCNC1 [AZD7762] (partner 0.2 µM)
# Test: as above
# Details: first compound 0.04 µM
# In short: as §1
row,Cell Line,relative viability
1,HOP-62,0.762
2,HCC-44,0.921
3,LU99A,0.315
4,BEN,0.75
